According to patent US20260285850A1, “SUBSTITUTED OXAZOLIDINONES AND IMIDAZOLINONES AS HERBICIDES” (FMC CORPORATION, priority 2023, published 2026):

Assays:
Format in all cases: in vivo
[1] = tested on: green foxtail (Setaria viridis); test: Test A preemergence soil spray, visual injury rating 0-100; conditions: 10 days, 0 = no effect, 100 = complete control
How it was run: (§1)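 Greenhouse test: loam/sand pots received a surfactant-containing formulation, as a preemergence directed soil spray or a postemergence spray on young plants. Injury was judged visually at day 10 relative to untreated controls.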

[2] = tested on: barnyardgrass (Echinochloa crus-galli); test: as above; conditions: 10 days, 0 = no effect, 100 = complete control
How it was run: as §1

[3] = tested on: ryegrass, Italian (italian ryegrass, Lolium multiflorum); test: as above; conditions: 10 days, 0 = no effect, 100 = complete control
How it was run: as §1

[4] = tested on: ragweed (common ragweed, Ambrosia artemisiifolia); test: as above; conditions: 10 days, 0 = no effect, 100 = complete control
How it was run: as §1

[5] = tested on: blackgrass (Alopecurus myosuroides); test: as above; conditions: 10 days, 0 = no effect, 100 = complete control
How it was run: as §1

[6] = tested on: soybean (Glycine max); test: as above; conditions: 10 days, 0 = no effect, 100 = complete control
How it was run: as §1

[7] = tested on: oat, wild (wild oat, Avena fatua); test: as above; conditions: 10 days, 0 = no effect, 100 = complete control
How it was run: as §1

[8] = tested on: corn (Zea mays); test: as above; conditions: 10 days, 0 = no effect, 100 = complete control
How it was run: as §1

[9] = tested on: palmer (palmer amaranth, palmer pigweed, Amaranthus palmeri); test: as above; conditions: 10 days, 0 = no effect, 100 = complete control
How it was run: as §1

[10] = tested on: kochia (Bassia scoparia); test: as above; conditions: 10 days, 0 = no effect, 100 = complete control
How it was run: as §1

[11] = tested on: wheat (Triticum aestivum); test: as above; conditions: 10 days, 0 = no effect, 100 = complete control
How it was run: as §1

[12] = tested on: sedge, umbrella (small-flower umbrella sedge, Cyperus difformis); test: Test B flooded paddy test, visual plant response rating 0-100; conditions: 250 g ai/ha, Flood, applied to paddy water, evaluated after 13 days
How it was run: (§2)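 Plants were grown to the 2-leaf stage, then pots were flooded to 3 cm above the soil and test compounds were applied directly into the paddy water. Water depth was held there throughout; after 13 days in a greenhouse, injury was scored visually against untreated controls.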

[13] = tested on: ducksalad (Heteranthera limosa); test: as above; conditions: 250 g ai/ha, Flood, applied to paddy water, evaluated after 13 days
How it was run: as §2

[14] = tested on: rice (Oryza sativa); test: as above; conditions: 250 g ai/ha, Flood, applied to paddy water, evaluated after 13 days
How it was run: as §2

[15] = tested on: barnyardgrass (Echinochloa crusgalli); test: as above; conditions: 250 g ai/ha, Flood, applied to paddy water, evaluated after 13 days
How it was run: as §2

[16] = tested on: green foxtail (Setaria viridis); test: Test A postemergence application, visual injury rating 0-100; conditions: 10 days
How it was run: as §1

[17] = tested on: barnyardgrass (Echinochloa crus-galli); test: as above; conditions: 10 days
How it was run: as §1

[18] = tested on: ryegrass, Italian (italian ryegrass, Lolium multiflorum); test: as above; conditions: 10 days
How it was run: as §1

[19] = tested on: ragweed (common ragweed, Ambrosia artemisiifolia); test: as above; conditions: 10 days
How it was run: as §1

[20] = tested on: blackgrass (Alopecurus myosuroides); test: as above; conditions: 10 days
How it was run: as §1

[21] = tested on: soybean (Glycine max); test: as above; conditions: 10 days
How it was run: as §1

[22] = tested on: oat, wild (wild oat, Avena fatua); test: as above; conditions: 10 days
How it was run: as §1

[23] = tested on: corn (Zea mays); test: as above; conditions: 10 days
How it was run: as §1

[24] = tested on: palmer (palmer amaranth, palmer pigweed, Amaranthus palmeri); test: as above; conditions: 10 days
How it was run: as §1

[25] = tested on: kochia (Bassia scoparia); test: as above; conditions: 10 days
How it was run: as §1

[26] = tested on: wheat (Triticum aestivum); test: as above; conditions: 10 days
How it was run: as §1

[27] = tested on: horseweed (Erigeron canadensis); test: as above; conditions: 10 days
How it was run: as §1

[28] = 31 g ai/ha, postemergence, 0 = no effect, 100 = complete control
[29] = Postemergence, 125 g ai/ha, 0 is no effect, 100 is complete control

## CONC(=O)C1CC(NC(=O)C2(C)CN(c3cc(F)cc(F)c3)C(=O)O2)CO1 (centres unmarked) [Compound 39]
[1]; 31 g ai/ha
  Foxtail, Green plant response rating (0-100): 0
[1]; 125 g ai/ha
  Foxtail, Green plant response rating (0 to 100 scale): 0
[2]; 31 g ai/ha
  Barnyardgrass plant response rating (0-100): 0
[2]; 125 g ai/ha
  Barnyardgrass plant response rating (0 to 100 scale): 20
[3]; 31 g ai/ha
  Ryegrass, Italian plant response rating (0-100): 0
[3]; 125 g ai/ha
  Ryegrass, Italian plant response rating (0 to 100 scale): 40
[4]; 31 g ai/ha
  Ragweed plant response rating (0-100): 0
[4]; 125 g ai/ha
  Ragweed plant response rating (0 to 100 scale): 0
[5]; 31 g ai/ha
  Blackgrass plant response rating (0-100): 0
[5]; 125 g ai/ha
  Blackgrass plant response rating (0 to 100 scale): 60
[6]; 31 g ai/ha
  Soybean plant response rating (0-100): 0
[6]; 125 g ai/ha
  Soybean plant response rating (0 to 100 scale): 10
[7]; 31 g ai/ha
  Oat, Wild plant response rating (0-100): 0
[7]; 125 g ai/ha
  Oat, Wild plant response rating (0 to 100 scale): 90
[8]; 31 g ai/ha
  Corn plant response rating (0-100): 0
[8]; 125 g ai/ha
  Corn plant response rating (0 to 100 scale): 0
[9]; 31 g ai/ha
  Amaranth, Palmer plant response rating (0-100): 0
[9]; 125 g ai/ha
  Amaranth, Palmer plant response rating (0 to 100 scale): 0
[10]; 31 g ai/ha
  Kochia plant response rating (0-100): 0
[10]; 125 g ai/ha
  Kochia plant response rating (0 to 100 scale): 20
[11]; 31 g ai/ha
  Wheat plant response rating (0-100): 0
[11]; 125 g ai/ha
  Wheat plant response rating (0 to 100 scale): 90
[12]
  Plant response rating, Sedge, Umbrella (0 to 100 scale, 0 is no effect and 100 is complete control): 0
[13]
  Plant response rating, Ducksalad (0 to 100 scale, 0 is no effect and 100 is complete control): 0
[14]
  Plant response rating, Rice (0 to 100 scale, 0 is no effect and 100 is complete control): 0
[15]
  Plant response rating, Barnyardgrass (0 to 100 scale, 0 is no effect and 100 is complete control): 0
[16]; [28]
  Foxtail, Green plant response rating (0-100): 20
[16]; [29]
  Foxtail, Green plant response rating (0 to 100 scale): 90
[17]; [28]
  Barnyardgrass plant response rating (0-100): 10
[17]; [29]
  Barnyardgrass plant response rating (0 to 100 scale): 90
[18]; [28]
  Ryegrass, Italian plant response rating (0-100): 30
[18]; [29]
  Ryegrass, Italian plant response rating (0 to 100 scale): 80
[19]; [28]
  Ragweed plant response rating (0-100): 0
[19]; [29]
  Ragweed plant response rating (0 to 100 scale): 20
[20]; [28]
  Blackgrass plant response rating (0-100): 90
[20]; [29]
  Blackgrass plant response rating (0 to 100 scale): 100
[21]; [28]
  Soybean plant response rating (0-100): 20
[21]; [29]
  Soybean plant response rating (0 to 100 scale): 60
[22]; [28]
  Oat, Wild plant response rating (0-100): 90
[22]; [29]
  Oat, Wild plant response rating (0 to 100 scale): 90
[23]; [28]
  Corn plant response rating (0-100): 0
[23]; [29]
  Corn plant response rating (0 to 100 scale): 100
[24]; [28]
  Amaranth, Palmer plant response rating (0-100): 0
[24]; [29]
  Amaranth, Palmer / Pigweed, Palmer plant response rating (0 to 100 scale): 20
[25]; [28]
  Kochia plant response rating (0-100): 20
[25]; [29]
  Kochia plant response rating (0 to 100 scale): 50
[26]; [28]
  Wheat plant response rating (0-100): 90
[26]; [29]
  Wheat plant response rating (0 to 100 scale): 90
[27]; [28]
  Horseweed plant response rating (0-100): 10
[27]; [29]
  Horseweed plant response rating (0 to 100 scale): 0
